In experiment [1] the test system is Cebus apella monkeys. The experiment is described as follows: Intraocular pressure (IOP) measurement after topical unilateral application to the eye of monkeys. The class given is in vivo. To be noted: female Cebus apella monkeys, 50ul aliquots, doses 0.165, 0.5 and 1.65 mg, IOP at 0.5, 1, 2, 3, 4 and 5 hours post drug, compared to vehicle alone. The protocol:
Male, albino New Zealand rabbits, and female Cebus apella monkeys are used in the example. Rabbits are used primarily to screen for undue ocular toxicity of 2-(N-propyl-N-2-phenylethylamino)-5-hydroxytetralin (active compound) before conducting experiments in monkeys.
A racemic mixture of 2-(N-propyl-N-2-phenylethylamino)-5-hydroxytetralin (active compound) is dissolved in distilled water (vehicle or carrier) on the day of the experiment. Solutions are administered in a masked manner, that is, solutions are prepared by a person that was neither involved in drug administration nor measurement of intraocular pressure (IOP) and pupil diameter (PD). The solution of the active compound is applied unilaterally with the contralateral (fellow) eye receiving vehicle only. Five monkeys are treated bilaterally with vehicle; one to two vehicle-treated monkeys are included each time a different dose of the active compound is used. Doses of active compound tested are: 0.165, 0.5 and 1.65 mg.
After taking two baseline (0 time) measurements, aliquots (50ul) of the solution of active compound and/or vehicle, only, are administered topically. Subsequently, IOP measurements are made at 0.5, 1, 2, 3, 4 and 5 hours post drug.

The test system of experiment [2] is rabbits. The following applies: cited from earlier work.
For experiment [3], the system named is monkeys. To be noted: Curr. Eye Res. 2, 281-288; cited from earlier work.
The mark [4] stands for this setting: rabbits, Curr. Eye Res. 2, 281-288 and 3, 307-314.

The source of these data is EP0257285A2, “Method and compositions for reducing the intraocular pressure of mammals” (Whitby Research Incorporated, priority 1986, dated 1988).

Molecules are shown by their SMILES. Read-outs that look alike come from different tables or passages of the source.

Regarding `CCCN(CCc1ccccc1)C1CCc2c(O)cccc2C1` (racemic) [active compound, 2-(N-propyl-N-2-phenylethylamino)-5-hydroxytetralin], the intraocular pressure entry in experiment [1] is given as “effectively lower the intraocular pressure”.

In the case of `CC(C)C[C@H]1C(=O)N2CCC[C@H]2[C@]2(O)O[C@](NC(=O)[C@@H]3C=C4c5cccc6[nH]c(Br)c(c56)C[C@H]4N(C)C3)(C(C)C)C(=O)N12` [Bromocriptine], the “intraocular pressure of rabbits” value in experiment [2] (rabbit, in vivo) is reported as “lower the intraocular pressure of rabbits”.

With `CN1C[C@H](CC#N)C[C@@H]2c3cccc4[nH]c(Cl)c(c34)C[C@H]21` [lergotrile], the “intraocular pressure of rabbits” value in experiment [2] (setting [4]) is “lower the intraocular pressure of rabbits”. Besides, the “intraocular pressure of monkeys” value in experiment [3] is listed as “lowered the intraocular pressure of monkeys”.

In the case of `CCCN1C[C@H](CSC)C[C@@H]2c3cccc4[nH]cc(c34)C[C@H]21` [pergolide], the “intraocular pressure of rabbits” value in experiment [2] (setting [4]) is “lower the intraocular pressure of rabbits”. In addition, the “intraocular pressure of monkeys” value in experiment [3] is “lowered the intraocular pressure of monkeys”.
